By melting point is commonly meant the temperature of the solid-liquid transition.

SMILES strings stand for the structures. Structures can show the parent of a compound that is named as a salt.

Regarding `CC(C)CC(CN)Cc1noc(=S)[nH]1.Cl` (stereo not shown), the melting point lay in the range of 183 to 185 °C.

The compound `CCCC(C(C)C)C(CN)CC(=O)O` (stereo not shown) (as salt: HCl) displayed a melting point of 160 to 170 °C.

Regarding `Cl.NCC1(Cc2noc(=S)[nH]2)CCCCC1`, the melting point was in the range of 210 to 212 °C. The result for `CS(=O)(=O)NCCC1(CN)CCCCC1.Cl` reads 196 to 199 °C.

For the origin of these results see patent publication US7026505B2, “Method of treating tinnitus” (Warner-Lambert Company, priority 2002, dated 2006).
